Assay results reported in patent US20250313533A1, “QUINOLINE CARBOXYLIC ACID ESTER COMPOUND AND PREPARATION METHOD AND USE THEREOF” (priority 2019, published 2025).

Legend:
[1] = tested on: pathogenic bacteria causing bacterial angular leaf spot in cucumbers; test: In vitro bactericidal activity, bacterial angular leaf spot in cucumbers; type: cell-based, pseudomonas; conditions: read-out: inhibitory rate; for inhibition at 1 ppm: dosage 1 ppm; for inhibition at 5 ppm: dosage 5 ppm
[2] = tested on: pathogenic bacteria causing bacterial wilt in tobacco; test: whole plant or invertebrate; type: cell-based, ralstonia; conditions: read-out: inhibitory rate
[3] = tested on: pathogenic bacteria causing black shank in potatoes; test: In vitro bactericidal activity, black shank in potatoes; type: cell-based; conditions: read-out: inhibitory rate; for inhibition at 1 ppm: dosage 1 ppm; for inhibition at 5 ppm: dosage 5 ppm
[4] = tested on: pathogenic bacteria causing stem rot in sweet potatoes; test: In vitro bactericidal activity, stem rot in sweet potatoes; type: cell-based, dikia; conditions: read-out: inhibitory rate; for inhibition at 1 ppm: dosage 1 ppm; for inhibition at 5 ppm: dosage 5 ppm
[5] = tested on: pathogenic bacteria causing bacterial blight in rice; test: whole plant or invertebrate; type: cell-based, xanthomonas; conditions: read-out: inhibitory rate
[6] = tested on: pathogenic bacteria causing fruit blotch in watermelons; test: In vitro bactericidal activity, fruit blotch in watermelons; type: cell-based, acidovorax; conditions: read-out: inhibitory rate; for inhibition at 1 ppm: dosage 1 ppm; for inhibition at 5 ppm: dosage 5 ppm
[7] = tested on: pathogenic bacteria causing black rot in Chinese cabbages; test: In vitro bactericidal activity, black rot in Chinese cabbages; type: cell-based, xanthomonas; conditions: Xanthomonas, read-out: inhibitory rate; for inhibition at 1 ppm: dosage 1 ppm; for inhibition at 5 ppm: dosage 5 ppm
[8] = tested on: pathogenic bacteria causing bacterial wilt in cassava; test: organism not typed; type: cell-based; conditions: read-out: inhibitory rate
[9] = tested on: pathogenic bacteria causing fire blight in pears; test: In vitro bactericidal activity, fire blight in pears; type: cell-based, erwinia; conditions: Erwinia, read-out: inhibitory rate; for inhibition at 1 ppm: dosage 1 ppm; for inhibition at 5 ppm: dosage 5 ppm
black shank in potatoes = test: Living crops in vivo protective activity, potatoes (root irrigation); conditions: Solanum tuberosum, read-out: efficacy against black shank in potatoes; for pest or weed control at 5 ppm: dosage 5 ppm; for pest or weed control at 10 ppm: dosage 10 ppm
Protocol: Root irrigation was carried out on the potatoes for tests according to the designed concentration of the agents. The dosage for each plant was 200 mL and was kept consistent (also for the control). The black shank bacteria were inoculated on the second day after the application. The results were investigated according to the disease condition.

[10] = tested on: indoor potted cucumber seedlings; test: Effect of improving growth and development of crops; type: in vivo; set-up: Rate of growth rate increase (%): concentration or dose not given beside the values; conditions: versus blank control; for Rate of chlorophyll content increase (%) / Rate of leaf area increase (%): 14 days after application; for Rate of growth rate increase (%): plant height 14 days after application; for Rate of leaf area increase (%): second leaf
In short: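 Before treatment, plant height and the second leaf's length and width are recorded. After 14 days these are repeated, chlorophyll is read by meter, and percentage increases in growth rate, leaf area and chlorophyll are computed.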

cucumber seedlings = test: Safety for plant growth after application; type: in vivo; conditions: dosage 200 ppm
In short: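 Read-outs are chlorophyll content, leaf area and the rate of increase in plant height, all measured on cucumber seedlings kept in pots indoors after application.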

[11] = tested on: soft rot in Chinese cabbages; test: Field test for controlling soft rot in Chinese cabbages; type: in vivo, Chinese cabbage; conditions: 7 days after the last application
Protocol: (§1) In October 2019, tests were carried out in fields of Chinese cabbage, wild cabbage and lettuce in Tai'an, Shandong. The doses of the compounds 152 and 282 of the present disclosure (both prepared as dispersible granules with a mass fraction of 10%) used were 16.87 ga.i./hm^2 and 33.75 ga.i./hm^2, and the control agents used were 3% (by weight) wettable powder of zhongshengmycin and 33.5% (by weight) aqueous suspension of oxine-copper (both were commercially available). The dose of zhongshengmycin was 67.5 ga.i./hm^2, and the dose of oxine-copper was 337.5 ga.i./hm^2. Test and control agents were arranged in randomized blocks. Plot area was 15 m^2. Treatment was repeated 3 times. The route of application was spraying on stem and leaves. The application was performed 2 times in total at an interval of 7 days, and the efficacy investigation was performed 7 days after the last application. During the investigation, sampling was carried out at 5 points in each plot. Disease conditions of soft rot in Chinese cabbages, soft rot in lettuces and soft rot in wild cabbages were recorded according to the relevant technical standard of Pesticide Guidelines for the Field Efficacy Trials GB/T17980.114-2004, and the incidence rate of plants was calculated to further evaluate the control effect.

[12] = tested on: soft rot in wild cabbages; test: Field test for controlling soft rot in wild cabbages; type: in vivo, wild cabbage; conditions: 7 days after the last application
Protocol: as §1

soft rot in lettuces = test: Field test for controlling soft rot in lettuces; type: in vivo, lettuce; conditions: 7 days after the last application
Protocol: as §1

[13] = tested on: bacterial wilt in tobacco; test: whole plant or invertebrate; conditions: Nicotiana tabacum, read-out: efficacy against bacterial wilt in tobacco
[14] = tested on: stem rot in sweet potatoes; test: whole plant or invertebrate; conditions: read-out: efficacy against stem rot in sweet potatoes
bacterial blight in rice = test: whole plant or invertebrate; conditions: Oryza sativa, read-out: efficacy against bacterial blight in rice
[15] = tested on: fruit blotch in watermelons; test: whole plant or invertebrate; conditions: read-out: efficacy against fruit blotch in watermelons
[16] = tested on: soft rot in Chinese cabbages; test: whole plant or invertebrate; conditions: 48 h, read-out: efficacy against soft rot in Chinese cabbages
[17] = dose 16.87 g a.i./hm^2, 2 sprays
[18] = dose 33.75 g a.i./hm^2, 2 sprays

Compound | inhibition at 1 ppm [1] | inhibition at 5 ppm [1] | inhibition at 1 ppm [2] | inhibition at 5 ppm [2] | inhibition at 1 ppm [3] | inhibition at 5 ppm [3] | inhibition at 1 ppm [4] | inhibition at 5 ppm [4] | inhibition at 1 ppm [5] | inhibition at 5 ppm [5] | inhibition at 1 ppm [6] | inhibition at 5 ppm [6] | inhibition at 1 ppm [7] | inhibition at 5 ppm [7] | inhibition at 1 ppm [8] | inhibition at 5 ppm [8] | inhibition at 1 ppm [9] | inhibition at 5 ppm [9] | pest or weed control at 5 ppm (black shank in potatoes) | pest or weed control at 10 ppm (black shank in potatoes) | also measured
CCOc1cc2c(cc1F)c(=O)c(C(=O)OCCOC)cn2C1CC1 [Compound 282, 2-methoxyethyl 1-cyclopropyl-6-fluoro-4-oxo-7-ethoxy-1,4-dihydroquinoline-3-carboxylate] | ≥ 90% | ≥ 90% | ≥ 90% | ≥ 90% | ≥ 90% | ≥ 90% | ≥ 90% | ≥ 90% | ≥ 90% | ≥ 90% | ≥ 90% | ≥ 90% | ≥ 90% | ≥ 90% | ≥ 90% | ≥ 90% | ≥ 90% | ≥ 90% | ≥ 90% | ≥ 90% | Rate of chlorophyll content increase (%) [10]: 16%; Rate of growth rate increase (%) [10]: 12%; Rate of leaf area increase (%) [10]: 16%; safety for plant growth (discoloration, necrosis, wilt, malformation) (cucumber seedlings): safe for plant growth; Control effect (%) [11, 17]: 82%; Control effect (%) [11, 18]: 90%; Control effect (%) [12, 17]: 80%; Control effect (%) [12, 18]: 87%; Control effect (%) (soft rot in lettuces; [17]): 73%; Control effect (%) (soft rot in lettuces; [18]): 85%; pest or weed control at 5 ppm [13]: ≥ 90%; pest or weed control at 10 ppm [13]: ≥ 90%; pest or weed control at 5 ppm [14]: ≥ 90%; pest or weed control at 10 ppm [14]: ≥ 90%; pest or weed control at 5 ppm (bacterial blight in rice): ≥ 90%; pest or weed control at 10 ppm (bacterial blight in rice): ≥ 90%; pest or weed control at 5 ppm [15]: ≥ 90%; pest or weed control at 10 ppm [15]: ≥ 90%; pest or weed control at 5 ppm [16]: ≥ 90%; pest or weed control at 10 ppm [16]: ≥ 90%
CCOCCOC(=O)c1cn(C2CC2)c2cc(OC)c(F)cc2c1=O [Compound 326] | ≥ 90% | ≥ 90% | ≥ 90% | ≥ 90% | ≥ 90% | ≥ 90% | ≥ 90% | ≥ 90% | ≥ 90% | ≥ 90% | ≥ 90% | ≥ 90% | ≥ 90% | ≥ 90% | ≥ 90% | ≥ 90% | ≥ 90% | ≥ 90% | ≥ 90% | ≥ 90% | Rate of chlorophyll content increase (%) [10]: 15%; Rate of growth rate increase (%) [10]: 13%; Rate of leaf area increase (%) [10]: 15%; safety for plant growth (discoloration, necrosis, wilt, malformation) (cucumber seedlings): safe for plant growth; pest or weed control at 5 ppm [13]: ≥ 90%; pest or weed control at 10 ppm [13]: ≥ 90%; pest or weed control at 5 ppm [14]: ≥ 90%; pest or weed control at 10 ppm [14]: ≥ 90%; pest or weed control at 5 ppm (bacterial blight in rice): ≥ 90%; pest or weed control at 10 ppm (bacterial blight in rice): ≥ 90%; pest or weed control at 5 ppm [15]: ≥ 90%; pest or weed control at 10 ppm [15]: ≥ 90%; pest or weed control at 5 ppm [16]: ≥ 90%; pest or weed control at 10 ppm [16]: ≥ 90%
COCCOC(=O)c1cn(C2CC2)c2cc(F)ccc2c1=O [Compound 195] | ≥ 90% | ≥ 90% | ≥ 90% | ≥ 90% | ≥ 90% | ≥ 90% | ≥ 90% | ≥ 90% | ≥ 90% | ≥ 90% | ≥ 90% | ≥ 90% | ≥ 90% | ≥ 90% | ≥ 90% | ≥ 90% | ≥ 90% | ≥ 90% | ≥ 90% | ≥ 90% | Rate of chlorophyll content increase (%) [10]: 12%; Rate of growth rate increase (%) [10]: 7%; Rate of leaf area increase (%) [10]: 9%; safety for plant growth (discoloration, necrosis, wilt, malformation) (cucumber seedlings): safe for plant growth; pest or weed control at 5 ppm [13]: ≥ 90%; pest or weed control at 10 ppm [13]: ≥ 90%; pest or weed control at 5 ppm [14]: ≥ 90%; pest or weed control at 10 ppm [14]: ≥ 90%; pest or weed control at 5 ppm (bacterial blight in rice): ≥ 90%; pest or weed control at 10 ppm (bacterial blight in rice): ≥ 90%; pest or weed control at 5 ppm [15]: ≥ 90%; pest or weed control at 10 ppm [15]: ≥ 90%; pest or weed control at 5 ppm [16]: ≥ 90%; pest or weed control at 10 ppm [16]: ≥ 90%
CCOCCOC(=O)c1cn(C2CC2)c2cc(Cl)c(F)cc2c1=O [Compound 153] | ≥ 90% | ≥ 90% | ≥ 90% | ≥ 90% | ≥ 90% | ≥ 90% | ≥ 90% | ≥ 90% | ≥ 90% | ≥ 90% | ≥ 90% | ≥ 90% | ≥ 90% | ≥ 90% | ≥ 90% | ≥ 90% | ≥ 90% | ≥ 90% | ≥ 90% | ≥ 90% | Rate of chlorophyll content increase (%) [10]: 14%; Rate of growth rate increase (%) [10]: 15%; Rate of leaf area increase (%) [10]: 13%; safety for plant growth (discoloration, necrosis, wilt, malformation) (cucumber seedlings): safe for plant growth; pest or weed control at 5 ppm [13]: ≥ 90%; pest or weed control at 10 ppm [13]: ≥ 90%; pest or weed control at 5 ppm [14]: ≥ 90%; pest or weed control at 10 ppm [14]: ≥ 90%; pest or weed control at 5 ppm (bacterial blight in rice): ≥ 90%; pest or weed control at 10 ppm (bacterial blight in rice): ≥ 90%; pest or weed control at 5 ppm [15]: ≥ 90%; pest or weed control at 10 ppm [15]: ≥ 90%; pest or weed control at 5 ppm [16]: ≥ 90%; pest or weed control at 10 ppm [16]: ≥ 90%
CCOCOC(=O)c1cn(C2CC2)c2cc(Cl)c(F)cc2c1=O [Compound 144] | ≥ 80% | ≥ 90% | ≥ 80% | ≥ 90% | ≥ 80% | ≥ 90% | ≥ 80% | ≥ 90% | ≥ 80% | ≥ 90% | ≥ 80% | ≥ 90% | ≥ 80% | ≥ 90% | ≥ 80% | ≥ 90% | ≥ 80% | ≥ 90% | ≥ 80% | ≥ 90% | Rate of chlorophyll content increase (%) [10]: 18%; Rate of growth rate increase (%) [10]: 10%; Rate of leaf area increase (%) [10]: 13%; safety for plant growth (discoloration, necrosis, wilt, malformation) (cucumber seedlings): safe for plant growth; pest or weed control at 5 ppm [13]: ≥ 90%; pest or weed control at 10 ppm [13]: ≥ 90%; pest or weed control at 5 ppm [14]: ≥ 90%; pest or weed control at 10 ppm [14]: ≥ 90%; pest or weed control at 5 ppm (bacterial blight in rice): ≥ 80%; pest or weed control at 10 ppm (bacterial blight in rice): ≥ 90%; pest or weed control at 5 ppm [15]: ≥ 90%; pest or weed control at 10 ppm [15]: ≥ 90%; pest or weed control at 5 ppm [16]: ≥ 80%; pest or weed control at 10 ppm [16]: ≥ 90%
